Laboratory results reported in article PMC6540907, “The nuclear export inhibitor aminoratjadone is a potent effector in extracellular-targeted drug conjugates” (Chemical Science, 2019).
Values joined by “and” are separate entries in the source; they are usually repeats but may differ in a detail not shown here. Equal values may be shown once. Read-outs that look alike come from different tables or passages of the source.

How the values were obtained:
[1] = test system: A-549; experiment: cells; format: cell-based, human
Protocol: (§1) Biological evaluation of the compounds […]
(§2) serial dilutions of the test compound were given to 120 µL of suspended cells (50.000/mL) in wells of 96-well plates. After 5 days of incubation growth inhibition (IC50) was determined using an MTT assay.9
(§3) Table S1:Medium conditions for different cell types.
(§4) Cell type Medium Additives
(§5) L-929 (DSMZ ACC 2) DME medium (high glucose) (Gibco) 10% fetal calf serum (Gibco) SKOV-3 DSMZ ATCC HTB Mc Coys-Medium (Gibco) 10% fetal calf serum (Gibco) […]
(§6) A549 (DSMZ ACC 107) DME medium (high glucose) (Gibco) 10% fetal calf serum (Gibco)

[2] = test system: SK-OV-3; experiment: cells; format: cell-based, human; conditions: Homo sapiens, SK-OV-3, read-out: Antiproliferative activity IC50
Protocol: as §1, §2, §3, §4, §5, §6

[3] = test system: KB-3.1; experiment: cells; format: cell-based, human
Protocol: as §1, §2, §3, §4, §5, §6

[4] = test system: MCF-7; experiment: cells; format: cell-based, human
Protocol: as §1, §2, §3, §4, §5, §6

[5] = molecular target: CRM1 (Homo sapiens, UniProt O14980); experiment: Nuclear export inhibition, fluorescent translocation biosensor in recombinant HeLa cells; format: cell-based; design: This cellular assay uses HeLa cells that express a recombinant fusion protein; endogenous in cells; host or cells: HeLa cells stably expressing the NLS-GST-GFP-RevNES translocation biosensor (HeLaRevBio); conditions: nuclear export inhibition IC50, HeLa cells expressing translocation biosensor, 1 h incubation
[6] = test system: L-929; experiment: Cell proliferation assay (MTT, 5 days); format: cell-based, murine
Protocol: as §1, §2, §3, §4, §5
A549 (DSMZ ACC 107) DME medium (high glucose) (Gibco) 10% fetal calf serum (Gibco) KB 3.1 (DSMZ ACC 158) DME medium (high glucose) (Gibco) 10% fetal calf serum (Gibco) Ratjadone Compound Antiproliferative activity IC50 [nM]
KB-3.1: human cervix carcinoma, KB-V1: multi-drug-resistant human cervix carcinoma, K-562: human chronic myelogenous leukemia cell, PC-3: human prostate carcinoma, L-929: murine fibroblast
Figure S8: Structures of Ratjadone A-D and their antiproliferative activity (IC50 values in nM). Data published by Köster et al.10

[7] = test system: KB-3.1 cancer cells; experiment: Cell proliferation assay under folate free conditions (MTT); format: cell-based, human; conditions: KB-3.1, folate receptor-positive, read-out: Antiproliferative activity IC50 of folate-ratjadone conjugates
Protocol: Cell proliferation assay under folate free conditions
KB 3.1 (DSMZ ACC 158) cells were cultivated at 37 °C and 10 % CO2 in RMPI-medium without folic acid (Gibco) with 10% fetal calf serum (Gibco). 120 µL of suspended cells (100.000/mL) were seeded in wells of 96-well plates and after 24 h at 37 °C and 10 % CO2 the medium was removed, the cells were washed with PBS and RPMI-medium without folic acid (Gibco) + 10% dialyzed fetal calf serum (Sigma) were added to the cells, before after additional 24 h at 37°C and 10 % CO2 60 µL of serial dilutions of the test compound were given to cells. After 1, 2 and 5 days of incubation growth inhibition (IC50) was determined using an […]

[8] = Homo sapiens, A549, read-out: Antiproliferative activity IC50, A-549 human lung carcinoma
[9] = Homo sapiens, KB 3-1, read-out: Antiproliferative activity IC50, KB-3.1 human cervix carcinoma
[10] = Homo sapiens, MCF7, read-out: Antiproliferative activity IC50, MCF-7 human breast carcinoma
[11] = KB 3-1, KB-3.1 human cervix carcinoma, read-out: Antiproliferative activity IC50
[12] = L-929 murine fibroblast, read-out: Antiproliferative activity IC50
[13] = Mus musculus, L929, L-929 murine fibroblast, read-out: Antiproliferative activity IC50
[14] = Mus musculus, L929, read-out: Antiproliferative activity IC50, L-929 murine fibroblast
[15] = read-out: Antiproliferative activity IC50, L-929 murine fibroblast

Chain of CRM1 (O14980 whole entry, the tested form may be a part): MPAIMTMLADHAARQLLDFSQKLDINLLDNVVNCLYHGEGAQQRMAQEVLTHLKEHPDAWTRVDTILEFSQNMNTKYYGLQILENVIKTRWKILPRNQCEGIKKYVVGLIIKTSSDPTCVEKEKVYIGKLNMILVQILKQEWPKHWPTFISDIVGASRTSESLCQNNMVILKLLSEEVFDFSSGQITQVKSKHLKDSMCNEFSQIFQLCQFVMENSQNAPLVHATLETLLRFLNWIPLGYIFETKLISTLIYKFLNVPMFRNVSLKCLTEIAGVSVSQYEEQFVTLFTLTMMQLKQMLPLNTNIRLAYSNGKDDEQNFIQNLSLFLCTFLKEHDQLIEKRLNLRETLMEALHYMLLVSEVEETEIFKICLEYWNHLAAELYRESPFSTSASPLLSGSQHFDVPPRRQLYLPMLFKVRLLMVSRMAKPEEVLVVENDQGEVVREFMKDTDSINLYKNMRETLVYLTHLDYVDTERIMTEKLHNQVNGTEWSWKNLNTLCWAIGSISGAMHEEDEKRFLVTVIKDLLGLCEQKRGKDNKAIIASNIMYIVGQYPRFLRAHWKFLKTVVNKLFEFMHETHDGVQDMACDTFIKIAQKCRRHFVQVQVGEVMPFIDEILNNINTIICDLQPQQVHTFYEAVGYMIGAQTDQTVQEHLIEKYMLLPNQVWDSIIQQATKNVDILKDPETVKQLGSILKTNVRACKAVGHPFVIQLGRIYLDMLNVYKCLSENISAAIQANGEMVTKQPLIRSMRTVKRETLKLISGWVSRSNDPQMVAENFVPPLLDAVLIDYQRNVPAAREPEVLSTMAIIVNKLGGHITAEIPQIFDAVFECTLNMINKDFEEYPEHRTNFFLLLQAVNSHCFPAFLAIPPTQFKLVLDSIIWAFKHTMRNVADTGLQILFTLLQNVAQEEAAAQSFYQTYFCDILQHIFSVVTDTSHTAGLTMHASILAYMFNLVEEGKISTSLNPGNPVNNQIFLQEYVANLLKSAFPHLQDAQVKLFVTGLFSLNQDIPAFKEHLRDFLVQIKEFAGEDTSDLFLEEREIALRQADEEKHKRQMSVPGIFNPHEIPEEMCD

Compound | IC50 [1, 8] | IC50 [2] | IC50 [3, 9] | IC50 [4, 10] | IC50 [5] | further results
C/C=C/[C@@H]1O[C@H]([C@@H](/C=C/C=C(\C)C[C@@H](C)/C=C(C)\C=C\[C@H]2CC=CC(=O)O2)NC(=O)CCSSc2ccccn2)C[C@@H](O)[C@@H]1C [Compound 31, 2-PySS(CH2)2(CO)-16R-Aminoratjadone] | 30.6 nM | 24.6 nM | 8.8 nM | 26 nM | 44.1 nM | –
C#CCNC1C[C@@H]([C@H](O)/C=C/C=C(\C)C[C@@H](C)/C=C(C)\C=C\[C@H]2CC=CC(=O)O2)O[C@@H](/C=C/C)[C@H]1C (stereo partly shown) [Compound 35, N-Propargyl-19-aminoratjadone] | 1.12 nM | 2.63 nM | 1.23 nM | 1.31 nM | 18.3 nM | –
C/C=C/[C@@H]1O[C@H]([C@H](O)/C=C/C=C(\C)C[C@@H](C)/C=C(C)\C=C\[C@H]2CC=CC(=O)O2)CC(N)[C@@H]1C (stereo partly shown) [Compound 33, 19-aminoratjadone] | 4.39 nM | 1.4 nM | 6.67 nM | 2.1 nM | 70 nM | –
C#CCCOC(=O)N[C@@H](/C=C/C=C(\C)C[C@@H](C)/C=C(C)\C=C\[C@H]1CC=CC(=O)O1)[C@@H]1C[C@@H](O)[C@H](C)[C@H](/C=C/C)O1 [Compound 22] | 2.45 nM | 1.2 nM | 1.23 nM | 0.62 nM | 12 nM | –
C/C=C/[C@@H]1O[C@H]([C@H](N)/C=C/C=C(\C)C[C@@H](C)/C=C(C)\C=C\[C@H](O)CC(N)CC(=O)OC)C[C@@H](O)[C@@H]1C (stereo partly shown) [Compound 18] | – | – | – | – | – | IC50 [3, 11]: 116 nM; IC50 [6, 12]: 3310 nM; IC50 [6, 13]: 3310 nM
CC=CC1OC(C(C=CC=C(C)CC(C)C=C(C)C=CC2CC=CC(=O)O2)NC(=O)OCc2ccc(NC(=O)C(CCCNC(N)=O)NC(=O)C(NC(=O)OCC3C4CCC#CCCC43)C(C)C)cc2)CC(O)C1C (stereo not drawn) [Compound 25, BCN-O(CO)HN-Val-Cit-pABO(CO)-16R-Aminoratjadone] | 39.5 nM | 34.7 nM | 25.1 nM | 20.2 nM | 246 nM and 346 nM | IC50 ([1]; read-out: Antiproliferative activity IC50, A-549 human lung carcinoma): 39.5 nM; IC50 ([3]; read-out: Antiproliferative activity IC50, KB-3.1 human cervix carcinoma): 25.1 nM; IC50 ([4]; read-out: Antiproliferative activity IC50, MCF-7 human breast carcinoma): 20.2 nM
C/C=C/[C@@H]1O[C@H]([C@@H](/C=C/C=C(\C)C[C@@H](C)/C=C(C)\C=C\[C@H]2CC=CC(=O)O2)NC(=O)CCSSC[C@H](NC(=O)CC[C@H](NC(=O)c2ccc(NCc3cnc4nc(N)nc(O)c4n3)cc2)C(=O)O)C(=O)O)C[C@@H](O)[C@@H]1C [FA-SS-16R-aminoratjadone] | – | – | – | – | – | IC50 ([7]; listed as FA-SS-16R-Aminoratjadone): 295 nM; IC50 [7]: 295 nM
C/C=C/[C@@H]1O[C@H]([C@@H](N)/C=C/C=C(\C)C[C@@H](C)/C=C(C)\C=C\[C@H]2CC=CC(=O)O2)C[C@@H](O)[C@@H]1C [Compound 17, 16S-aminoratjadone] | 1.31 nM | 0.81 nM | 1.59 nM | 0.36 nM | 2.8 nM | IC50 [6, 14]: 28.4 nM; IC50 [6, 15]: 28.4 nM
C/C=C/[C@@H]1O[C@H]([C@@H](/C=C/C=C(\C)C[C@@H](C)/C=C(C)\C=C\[C@H]2CC=CC(=O)O2)NC(=O)OCc2ccc(NC(=O)[C@H](CCCNC(N)=O)NC(=O)[C@@H](NC(=O)OCC3C4CCc5nnn(CCC[C@H](NC(=O)[C@@H](CC(=O)O)NC(=O)[C@@H](CC(=O)O)NC(=O)[C@H](CCCn6nnc7c6CCC6C(CC7)C6COC(=O)N[C@H](C(=O)N[C@@H](CCCNC(N)=O)C(=O)Nc6ccc(COC(=O)N[C@H](/C=C/C=C(\C)C[C@@H](C)/C=C(C)\C=C\[C@H]7CC=CC(=O)O7)[C@@H]7C[C@@H](O)[C@H](C)[C@H](/C=C/C)O7)cc6)C(C)C)NC(=O)[C@@H](CC(=O)O)NC(=O)[C@@H](CC(=O)O)NC(=O)[C@H](CCCn6nnc7c6CCC6C(CC7)C6COC(=O)N[C@H](C(=O)N[C@@H](CCCNC(N)=O)C(=O)Nc6ccc(COC(=O)N[C@H](/C=C/C=C(\C)C[C@@H](C)/C=C(C)\C=C\[C@H]7CC=CC(=O)O7)[C@@H]7C[C@@H](O)[C@H](C)[C@H](/C=C/C)O7)cc6)C(C)C)NC(=O)[C@@H](CC(=O)O)NC(=O)[C@@H](CC(=O)O)NC(=O)CC[C@H](NC(=O)c6ccc(NCc7cnc8nc(N)nc(O)c8n7)cc6)C(=O)O)C(=O)O)c5CCC43)C(C)C)cc2)C[C@@H](O)[C@@H]1C (stereo partly drawn) [FA-11-(Val-Cit-pABA-16R-aminoratjadone)3] | – | – | – | – | – | IC50 [7]: 45 nM
C/C=C/[C@@H]1O[C@H](C(=O)/C=C/C=C(\C)C[C@@H](C)/C=C(C)\C=C\[C@H]2CC=CC(=O)O2)CC(=O)[C@@H]1C [Compound 15, 16,19-dioxoratjadone] | 9.72 nM | 1.59 nM | 3.98 nM | 2.87 nM | 17.5 nM | IC50 [6, 14]: 24.3 nM
C/C=C/[C@@H]1O[C@H]([C@@H](/C=C/C=C(\C)C[C@@H](C)/C=C(C)\C=C\[C@H]2CC=CC(=O)O2)NC(=O)OCc2ccc(NC(=O)[C@H](CCCNC(N)=O)NC(=O)[C@@H](NC(=O)OC[C@@H]3[C@@H]4CCc5nnn(CCC[C@H](NC(=O)CC[C@H](NC(=O)c6ccc(NCc7cnc8nc(N)nc(O)c8n7)cc6)C(=O)O)C(=O)N[C@H](CCCCN)C(=O)O)c5CC[C@@H]43)C(C)C)cc2)C[C@@H](O)[C@@H]1C [FA-9-Val-Cit-pABA-16R-aminoratjadone] | – | – | – | – | – | IC50 [7]: 50.9 nM
C/C=C/[C@@H]1O[C@H]([C@@H](/C=C/C=C(\C)C[C@@H](C)/C=C(C)\C=C\[C@H]2CC=CC(=O)O2)NC(=O)OCc2ccc(NC(=O)[C@H](CCCNC(N)=O)NC(=O)[C@@H](NC(=O)OC[C@@H]3[C@@H]4CCc5nnn(-c6ccc(C(=O)NCCCC[C@H](NC(=O)CC[C@H](NC(=O)CC[C@H](NC(=O)c7ccc(NCc8cnc9nc(N)nc(O)c9n8)cc7)C(=O)O)C(=O)O)C(=O)O)cc6)c5CC[C@@H]43)C(C)C)cc2)C[C@@H](O)[C@@H]1C [FA-6-Val-Cit-pABA-16R-aminoratjadone] | – | – | – | – | – | IC50 ([7]; listed as FA-6-Val-Cit-pABA-16R-Aminoratjadone): 223 nM; IC50 [7]: 223 nM
C/C=C/[C@@H]1O[C@H]([C@H](N)/C=C/C=C(\C)C[C@@H](C)/C=C(C)\C=C\[C@H]2CC=CC(=O)O2)C[C@@H](O)[C@@H]1C [Compound 16, 16R-aminoratjadone] | 0.31 nM | 0.61 nM | 0.39 nM | 0.26 nM | 2.7 nM | IC50 [6, 14]: 4.61 nM
C/C=C/[C@@H]1O[C@H](C(=O)/C=C/C=C(\C)C[C@@H](C)/C=C(C)\C=C\[C@H]2CC=CC(=O)O2)C[C@@H](O)[C@@H]1C [Compound 13, 16-oxoratjadone] | 1.76 nM | 0.24 nM | 2.57 nM | 0.22 nM | 52.5 nM | IC50 [6, 14]: 12.6 nM; IC50 [6, 15]: 12.6 nM
C/C=C/[C@@H]1O[C@H]([C@@H](N)/C=C/C=C(\C)C[C@@H](C)/C=C(C)\C=C\[C@H](O)CC(N)CC(=O)OC)C[C@@H](O)[C@@H]1C (stereo partly shown) [Compound 19] | – | – | – | – | – | IC50 [3, 11]: 165 nM; IC50 [6, 12]: 1320 nM; IC50 [6, 13]: 1320 nM
C/C=C/[C@@H]1O[C@H]([C@@H](/C=C/C=C(\C)C[C@@H](C)/C=C(C)\C=C\[C@H]2CC=CC(=O)O2)NC(=O)OCCc2cn(CCC[C@H](NC(=O)CC[C@H](NC(=O)CC[C@H](NC(=O)c3ccc(NCc4cnc5nc(N)[nH]c(=O)c5n4)cc3)C(=O)O)C(=O)O)C(=O)O)nn2)C[C@@H](O)[C@@H]1C [FA-7-L-16R-aminoratjadone] | – | – | – | – | – | IC50 ([7]; listed as FA-7-L-16R-Aminoratjadone): 190 nM; IC50 [7]: 190 nM
C#CCCC(=O)N[C@H](/C=C/C=C(\C)C[C@@H](C)/C=C(C)\C=C\[C@H]1CC=CC(=O)O1)[C@@H]1C[C@@H](O)[C@H](C)[C@H](/C=C/C)O1 [Compound 20] | 0.58 nM | 0.44 nM | 1.05 nM | 0.4 nM | 23.2 nM | –
